Test [1] concerns the target T1, USP1-UAF1 complex (Homo sapiens, UniProt O94782). The following applies: 1.2 µM.
Experimental: (§1) Biochemical Assay: The compounds were evaluated for their potential to inhibit USP1-UAF1 complex (Boston Biochem, Catalog: E568-050) using a fluorescence-based assay. The final concentrations of USP1-UAF1 complex protein and substrate Ubiquitin-Rhodamine-110 (R&D systems, Catalog U-555-050) used in the assay were 0.45 and 150 nM respectively. 50 mM HEPES pH. 7.5, 100 mM NaCl, 0.5 mM EDTA, 1 mM TCEP, 10% BSA, 0.01% Tween 20 buffer was used in the assay. The total assay volume was 20 μL. […] The final DMSO concentration in the assay was 1%. The compounds were pre-incubated with USP1-UAF1 complex at 25° C. for 15 min. After preincubation, required concentration of substrate was added and incubated at 25° C. for 60 min. Fluorescence at Excitation: 485 nm, Emission: 535 nm was measured in Victor-5 from Perkin Elmer.
(§2) To determine IC50 values, dose response curves were generated by plotting percentage inhibition as a function of inhibitor concentration and the data was fitted to sigmoidal non-linear regression equation (variable slope) using Graph Pad prism software V8.
(§3) The compounds were screened by the above-mentioned assay procedure.
The target of test [2] is T1, USP1-UAF1 complex. Briefly: biochemical.
Experimental: as §1, §2, §3

pIC50: −log10 of the molar value.

T1 sequence (O94782 whole entry): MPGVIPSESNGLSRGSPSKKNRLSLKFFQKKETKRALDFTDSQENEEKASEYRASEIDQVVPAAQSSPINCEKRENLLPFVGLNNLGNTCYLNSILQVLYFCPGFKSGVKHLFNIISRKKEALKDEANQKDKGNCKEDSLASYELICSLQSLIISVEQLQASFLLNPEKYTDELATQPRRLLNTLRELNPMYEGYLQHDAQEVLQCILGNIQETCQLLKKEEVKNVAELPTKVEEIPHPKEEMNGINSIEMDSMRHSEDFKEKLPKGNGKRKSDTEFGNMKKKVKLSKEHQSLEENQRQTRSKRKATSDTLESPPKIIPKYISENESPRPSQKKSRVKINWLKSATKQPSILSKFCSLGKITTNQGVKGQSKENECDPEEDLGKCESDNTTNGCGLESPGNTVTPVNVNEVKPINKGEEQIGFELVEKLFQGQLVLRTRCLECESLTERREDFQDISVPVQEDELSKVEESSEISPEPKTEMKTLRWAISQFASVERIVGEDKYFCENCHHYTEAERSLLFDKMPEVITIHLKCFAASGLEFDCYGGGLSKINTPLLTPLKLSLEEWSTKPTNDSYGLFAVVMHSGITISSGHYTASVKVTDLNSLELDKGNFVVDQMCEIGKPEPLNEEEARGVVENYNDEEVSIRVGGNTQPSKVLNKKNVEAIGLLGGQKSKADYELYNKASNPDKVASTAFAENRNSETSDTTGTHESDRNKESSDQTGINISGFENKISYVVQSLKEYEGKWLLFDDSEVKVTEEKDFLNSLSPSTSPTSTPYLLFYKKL
T1 sequence (Q8TAF3 whole entry partner): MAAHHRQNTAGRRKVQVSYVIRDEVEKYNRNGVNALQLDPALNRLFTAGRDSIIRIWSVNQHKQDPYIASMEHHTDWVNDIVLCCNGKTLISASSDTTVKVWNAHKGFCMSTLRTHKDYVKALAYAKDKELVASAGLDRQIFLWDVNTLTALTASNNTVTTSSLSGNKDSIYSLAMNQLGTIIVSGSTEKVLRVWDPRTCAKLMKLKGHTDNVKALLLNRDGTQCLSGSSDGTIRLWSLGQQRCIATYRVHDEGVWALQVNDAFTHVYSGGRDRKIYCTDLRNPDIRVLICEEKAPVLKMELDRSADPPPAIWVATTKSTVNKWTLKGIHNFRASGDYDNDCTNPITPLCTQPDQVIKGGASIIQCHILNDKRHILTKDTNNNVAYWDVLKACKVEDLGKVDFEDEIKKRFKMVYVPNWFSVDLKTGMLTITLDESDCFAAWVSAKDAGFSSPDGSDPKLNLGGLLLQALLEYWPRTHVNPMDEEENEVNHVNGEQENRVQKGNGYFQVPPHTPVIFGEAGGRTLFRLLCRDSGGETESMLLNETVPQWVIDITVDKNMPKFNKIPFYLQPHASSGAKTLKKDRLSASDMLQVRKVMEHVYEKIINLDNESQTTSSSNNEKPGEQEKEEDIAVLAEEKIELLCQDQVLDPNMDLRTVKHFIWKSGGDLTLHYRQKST

What is called inhibition is the drop in the measured response relative to a control, in per cent. In general, pIC50 refers to the negative decadic logarithm of the IC50, by convention in mol/L. Higher therefore signals a small IC50. In turn, `COc1ncnc(C2CC2)c1-c1nn(C)c2c1CN(c1ccc(-c3nc(C(F)(F)F)cn3C)cc1)CC2` [Compound 1, 3-(4-cyclopropyl-6-methoxypyrimidin-5-yl)-1-methyl-5-(4-(1-methyl-4-(trifluoromethyl)-1H-imidazol-2-yl)phenyl)-4,5,6,7-tetrahydro-1H-pyrazolo[4,3-c]pyridine] came in with an inhibition on USP1-UAF1 complex [1] of 98%. This compound also showed a pIC50 against USP1-UAF1 complex [2] of 7.00 to 7.30. For `COc1cccc(C2CC2)c1-c1nn(C)c2c1CN(c1ccc(-c3nc(C(F)(F)F)cn3C)cc1)CC2` [Compound 2, 3-(2-cyclopropyl-6-methoxyphenyl)-1-methyl-5-(4-(1-methyl-4-(trifluoromethyl)-1H-imidazol-2-yl)phenyl)-4,5,6,7-tetrahydro-1H-pyrazolo[4,3-c]pyridine], the pIC50 against USP1-UAF1 complex [2] is over 7.30. The compound `CC(C)c1ncccc1-c1nn(C)c2c1CN(c1ccc(-c3nc(C(F)(F)F)cn3C)cc1)CC2` [Compound 3, 3-(2-isopropylpyridin-3-yl)-1-methyl-5-(4-(1-methyl-4-(trifluoromethyl)-1H-imidazol-2-yl)phenyl)-4,5,6,7-tetrahydro-1H-pyrazolo[4,3-c]pyridine] displayed an inhibition on USP1-UAF1 complex [1] of 99%. Also, the negative logarithm of the IC50 (pIC50) at USP1-UAF1 complex [2] is over 7.30.

Turning to `CC(C)c1ncccc1-c1nn(C)c2c1CN(c1ccc(-c3nc(C(F)(F)F)cn3C)nc1)CC2` [Compound 4, 3-(2-isopropylpyridin-3-yl)-1-methyl-5-(6-(1-methyl-4-(trifluoromethyl)-1H-imidazol-2-yl)pyridin-3-yl)-4,5,6,7-tetrahydro-1H-pyrazolo[4,3-c]pyridine], at USP1-UAF1 complex [1], the inhibition is 81%. This compound also gave a pIC50 on USP1-UAF1 complex [2] of under 7.00. `CCn1cc(C(F)(F)F)nc1-c1ccc(N2CCc3c(c(-c4c(OC)ncnc4C4CC4)nn3C)C2)cc1` [Compound 5, 3-(4-cyclopropyl-6-methoxypyrimidin-5-yl)-5-(4-(1-ethyl-4-(trifluoromethyl)-1H-imidazol-2-yl)phenyl)-1-methyl-4,5,6,7-tetrahydro-1H-pyrazolo[4,3-c]pyridine] displayed an inhibition at USP1-UAF1 complex [1] of 100%. Besides, the negative-log IC50 (pIC50) on USP1-UAF1 complex [2] was over 7.30. Turning to `COc1ncnc(C2CC2)c1-c1nn(C)c2c1CN(c1ccc(-c3nc(C(F)(F)F)cn3C(C)C)cc1)CC2` [Compound 6, 3-(4-cyclopropyl-6-methoxypyrimidin-5-yl)-5-(4-(1-isopropyl-4-(trifluoromethyl)-1H-imidazol-2-yl)phenyl)-1-methyl-4,5,6,7-tetrahydro-1H-pyrazolo[4,3-c]pyridine], the inhibition at USP1-UAF1 complex [1] was found to be 100%. On USP1-UAF1 complex [2], the pIC50 is over 7.30. On the same counts, the results for `COc1ncnc(C2CC2)c1-c1nn(C)c2c1CN(c1ccc(-c3nc(C(F)(F)F)cn3C3CC3)cc1)CC2` [Compound 7, 5-(4-(1-cyclopropyl-4-(trifluoromethyl)-1H-imidazol-2-yl)phenyl)-3-(4-cyclopropyl-6-methoxypyrimidin-5-yl)-1-methyl-4,5,6,7-tetrahydro-1H-pyrazolo[4,3-c]pyridine] are 100% and over 7.30. As for `COc1ncnc(C2CC2)c1-c1nn(C)c2c1CN(c1ccc(-c3nc(C(F)(F)F)cn3C3CCC3)cc1)CC2` [Compound 8, 5-(4-(1-cyclobutyl-4-(trifluoromethyl)-1H-imidazol-2-yl)phenyl)-3-(4-cyclopropyl-6-methoxypyrimidin-5-yl)-1-methyl-4,5,6,7-tetrahydro-1H-pyrazolo[4,3-c]pyridine], the inhibition on USP1-UAF1 complex [1] is 100%. At USP1-UAF1 complex [2], this compound had a pIC50 of over 7.30. On the same counts, the results for `COCCn1cc(C(F)(F)F)nc1-c1ccc(N2CCc3c(c(-c4c(OC)ncnc4C4CC4)nn3C)C2)cc1` [Compound 9, 3-(4-cyclopropyl-6-methoxypyrimidin-5-yl)-5-(4-(1-(2-methoxyethyl)-4-(trifluoromethyl)-1H-imidazol-2-yl)phenyl)-1-methyl-4,5,6,7-tetrahydro-1H-pyrazolo[4,3-c]pyridine] are 99% and over 7.30.

Compound `COc1ncnc(C2CC2)c1-c1nn(C)c2c1CN(c1ccc(-c3nc(C(F)(F)F)cn3CCN(C)C)cc1)CC2` [Compound 10, 2-(2-(4-(3-(4-cyclopropyl-6-methoxypyrimidin-5-yl)-1-methyl-1,4,6,7-tetrahydro-5H-pyrazolo[4,3-c]pyridin-5-yl)phenyl)-4-(trifluoromethyl)-1H-imidazol-1-yl)-N,N-dimethylethan-1-amine] returned an inhibition against USP1-UAF1 complex [1] of 88%. On USP1-UAF1 complex [2], this compound showed a pIC50 of under 7.00. On the same counts, the results for `COc1ncnc(C2CC2)c1-c1nn(C)c2c1CN(c1ccc(-c3nc(C(F)(F)F)cn3C3CN(C)C3)cc1)CC2` [Compound 11, 3-(4-cyclopropyl-6-methoxypyrimidin-5-yl)-1-methyl-5-(4-(1-(1-methylazetidin-3-yl)-4-(trifluoromethyl)-1H-imidazol-2-yl)phenyl)-4,5,6,7-tetrahydro-1H-pyrazolo[4,3-c]pyridine] are 86% and under 7.00. With `COc1ncnc(C2CC2)c1-c1nn(C)c2c1CN(c1ccc(-c3nc(C(F)(F)F)cn3C)nc1)CC2` [Compound 12, 3-(4-cyclopropyl-6-methoxypyrimidin-5-yl)-1-methyl-5-(6-(1-methyl-4-(trifluoromethyl)-1H-imidazol-2-yl)pyridin-3-yl)-4,5,6,7-tetrahydro-1H-pyrazolo[4,3-c]pyridine], the inhibition on USP1-UAF1 complex [1] amounted to 98%. This compound also had a pIC50 against USP1-UAF1 complex [2] of over 7.30.

In the case of `COc1ncnc(C2CC2)c1-c1nn(C)c2c1CN(c1ccc(-c3nc(C(F)(F)F)cn3C)cn1)CC2` [Compound 13, 3-(4-cyclopropyl-6-methoxypyrimidin-5-yl)-1-methyl-5-(5-(1-methyl-4-(trifluoromethyl)-1H-imidazol-2-yl)pyridin-2-yl)-4,5,6,7-tetrahydro-1H-pyrazolo[4,3-c]pyridine], the inhibition against USP1-UAF1 complex [1] came to 98%. The compound further had a pIC50 against USP1-UAF1 complex [2] of over 7.30.

Compound `CCn1cc(C(F)(F)F)nc1-c1ccc(N2CCc3c(c(-c4c(OC)ncnc4C4CC4)nn3C)C2)nc1` [Compound 14, 3-(4-cyclopropyl-6-methoxypyrimidin-5-yl)-5-(5-(1-ethyl-4-(trifluoromethyl)-1H-imidazol-2-yl)pyridin-2-yl)-1-methyl-4,5,6,7-tetrahydro-1H-pyrazolo[4,3-c]pyridine] had an inhibition at USP1-UAF1 complex [1] of 99%. The negative-log IC50 (pIC50) against USP1-UAF1 complex [2] was 7.00 to 7.30. With `COc1ncnc(C2CC2)c1-c1nn(C)c2c1CN(c1ccc(-c3nc(C(F)(F)F)cn3C(C)C)cn1)CC2` [Compound 15, 3-(4-cyclopropyl-6-methoxypyrimidin-5-yl)-5-(5-(1-isopropyl-4-(trifluoromethyl)-1H-imidazol-2-yl)pyridin-2-yl)-1-methyl-4,5,6,7-tetrahydro-1H-pyrazolo[4,3-c]pyridine], at USP1-UAF1 complex [1], the inhibition was determined as 96%. Also, the pIC50 at USP1-UAF1 complex [2] was 7.00 to 7.30. For `COc1ncnc(C2CC2)c1-c1nn(C)c2c1CN(c1ccc(-c3nc(C(F)(F)F)cn3C3CCC3)cn1)CC2` [Compound 16, 5-(5-(1-cyclobutyl-4-(trifluoromethyl)-1H-imidazol-2-yl)pyridin-2-yl)-3-(4-cyclopropyl-6-methoxypyrimidin-5-yl)-1-methyl-4,5,6,7-tetrahydro-1H-pyrazolo[4,3-c]pyridine], in that order: 99% and over 7.30. In turn, `COc1ncnc(C2CC2)c1-c1nn(C)c2c1CN(c1ccc(-n3nc(C(F)(F)F)cc3C)cc1)CC2` [Compound 17, 3-(4-cyclopropyl-6-methoxypyrimidin-5-yl)-1-methyl-5-(4-(5-methyl-3-(trifluoromethyl)-1H-pyrazol-1-yl)phenyl)-4,5,6,7-tetrahydro-1H-pyrazolo[4,3-c]pyridine] had an inhibition on USP1-UAF1 complex [1] of 100%. Further, the pIC50 against USP1-UAF1 complex [2] was over 7.30. Regarding `COc1ncnc(C2CC2)c1-c1nn(C)c2c1CN(c1ccc(-n3nc(C(F)(F)F)cc3OC)cc1)CC2` [Compound 19, 3-(4-cyclopropyl-6-methoxypyrimidin-5-yl)-5-(4-(5-methoxy-3-(trifluoromethyl)-1H-pyrazol-1-yl)phenyl)-1-methyl-4,5,6,7-tetrahydro-1H-pyrazolo[4,3-c]pyridine], at USP1-UAF1 complex [1], the inhibition turned out to be 99%. Moreover, the negative logarithm of the IC50 (pIC50) against USP1-UAF1 complex [2] was over 7.30. On USP1-UAF1 complex [1], `CCOc1cc(C(F)(F)F)nn1-c1ccc(N2CCc3c(c(-c4c(OC)ncnc4C4CC4)nn3C)C2)cc1` [Compound 20, 3-(4-cyclopropyl-6-methoxypyrimidin-5-yl)-5-(4-(5-ethoxy-3-(trifluoromethyl)-1H-pyrazol-1-yl)phenyl)-1-methyl-4,5,6,7-tetrahydro-1H-pyrazolo[4,3-c]pyridine] gave an inhibition of 99%. The compound further had a pIC50 against USP1-UAF1 complex [2] of over 7.30. Turning to `COc1ncnc(C2CC2)c1-c1nn(C)c2c1CN(c1ccc(-c3nc(Cl)cn3C)cc1)CC2` [Compound 21, 5-(4-(4-chloro-1-methyl-1H-imidazol-2-yl)phenyl)-3-(4-cyclopropyl-6-methoxypyrimidin-5-yl)-1-methyl-4,5,6,7-tetrahydro-1H-pyrazolo[4,3-c]pyridine], the inhibition on USP1-UAF1 complex [1] was 97%. Moreover, the negative-log IC50 (pIC50) against USP1-UAF1 complex [2] is over 7.30. `COc1ncccc1-c1ccc(N2CCc3c(c(-c4c(OC)ncnc4C4CC4)nn3C)C2)nc1` [Compound 22, 3-(4-cyclopropyl-6-methoxypyrimidin-5-yl)-5-(2'-methoxy-[3,3′-bipyridin]-6-yl)-1-methyl-4,5,6,7-tetrahydro-1H-pyrazolo[4,3-c]pyridine]: on USP1-UAF1 complex [1], the inhibition was determined as 39%. Further, at USP1-UAF1 complex [2], the pIC50 is under 7.00. As for `COc1ncnc(C2CC2)c1-c1nn(C)c2c1CN(c1ccc(-c3c(C)noc3C)cn1)CC2` [Compound 23, 4-(6-(3-(4-cyclopropyl-6-methoxypyrimidin-5-yl)-1-methyl-1,4,6,7-tetrahydro-5H-pyrazolo[4,3-c]pyridin-5-yl)pyridin-3-yl)-3,5-dimethylisoxazole], the inhibition against USP1-UAF1 complex [1] came out at 3%. In addition, the negative logarithm of the IC50 (pIC50) on USP1-UAF1 complex [2] is under 7.00.

In turn, `CCn1nc(-c2c(OC)ncnc2C2CC2)c2c1CCN(c1ccc(-c3nc(C(F)(F)F)cn3C)cc1)C2` [Compound 24, 3-(4-cyclopropyl-6-methoxypyrimidin-5-yl)-1-ethyl-5-(4-(1-methyl-4-(trifluoromethyl)-1H-imidazol-2-yl)phenyl)-4,5,6,7-tetrahydro-1H-pyrazolo[4,3-c]pyridine] showed an inhibition at USP1-UAF1 complex [1] of 98%. The negative-log IC50 (pIC50) on USP1-UAF1 complex [2] was over 7.30.

Source of the values: patent US20260152498A1, “4,5,6,7-TETRAHYDRO-1H-PYRAZOLO[4,3-c]PYRIDINE COMPOUNDS AND DERIVATIVES AS USP1 INHIBITORS” (EXELIXIS, INC., priority 2022, published 2026).
